In patent publication US12350270B2, “Antimalarial agents” (Merck Sharp & Dohme LLC, priority 2019, dated 2025) one finds EC50 data, which are given here for 34 compounds.

In one experiment the test system is parasites (ring stage, in human red blood cell culture). Description: Parasite LDH growth assay (antiparasite potency, Parasite Assay). The format is cell-based, Plasmodium falciparum. To be noted: 0.7% rings, 2% haematocrit, 72 hours at 37° C., LDH readout of parasite growth. The method, then:
Assessing Antiparasite Potency in a Parasite LDH Growth Assay (Parasite Assay)
The parasite stock was maintained at 4% haematocrit in RPMI-Hepes media buffered with sodium bicarbonate and supplemented with 5% heat inactivated human serum and 0.5% albumax.
On the day of assay set up, a blood smear of the parasite culture was Giemsa stained and counted. The parasitemia was adjusted to 0.7% rings and the haematocrit was diluted to 2% in RPMI-Hepes media buffered with sodium bicarbonate and supplemented with 5% heat inactivated human serum and 0.5% albumax. 30 ul of diluted parasites are then added into 10 ul of media+compound in pre-prepared Greiner TC assay plates. Parasite assay plates were placed in gassed humidified boxes in single layer and allowed to incubate at 37° C. for 72 hours. After 72 hours growth, assay plates are sealed with parafilm and frozen flat, in single file at −80° C. overnight. On the following day, assay plates are allowed to thaw at room temperature for 4 hours to which an LDH assay is performed to measure parasite growth.
With `CCC1(CC)CC(=O)N([C@@H]2CCOc3ccc(C(=O)NC4c5ccccc5OCC4O)cc32)C(=N)N1` (single isomer, unassigned) [Example 8A], the EC50 (commonly the concentration that produces a half-maximal response) stood at 10 nM. The same measure, in the same setting: for `CCC1(CC)CC(=O)N([C@@H]2CCOc3ccc(C(=O)NC4c5ccccc5OCC4O)cc32)C(=N)N1` (single isomer, unassigned) [Example 8B] the value was 22 nM. Same read-out and setting: for `CCC1(CC)CC(=O)N([C@@H]2CCOc3ccc(C(=O)NC4c5ccccc5OCC4O)cc32)C(=N)N1` (single isomer, unassigned) [Example 8C] the value was 120 nM; for `CCC1(CC)CC(=O)N([C@@H]2CCOc3ccc(C(=O)NC4c5ccccc5OCC4O)cc32)C(=N)N1` (single isomer, unassigned) [Example 8D], 86 nM. The same measure, in the same setting: for `CCC1C[C@@H](N2C(=N)NC(CC)(CC)CC2=O)c2cc(C(=O)N[C@@H]3c4ccccc4C[C@H]3O)ccc2O1` (single isomer, unassigned) [Example 9A] the value was 0.9 nM; for `CCC1C[C@@H](N2C(=N)NC(CC)(CC)CC2=O)c2cc(C(=O)N[C@@H]3c4ccccc4C[C@H]3O)ccc2O1` (single isomer, unassigned) [Example 9B], 170 nM.

The compound `CCC1C[C@@H](N2C(=N)NC(CC)(CC)CC2=O)c2cc(C(=O)NC3c4ccccc4OC(C)(C)C3O)ccc2O1` (single isomer, unassigned) [Example 13A] gave an EC50 of 0.8 nM. On the same count and under the same terms, for `CCC1(CC)CC(=O)N([C@@H]2CC(COC)Oc3ccc(C(=O)N[C@H]4CC(C)(C)Oc5ccccc54)cc32)C(=N)N1` (single isomer, unassigned) [Example 16A] the value was 0.6 nM; for `CCC1(CC)CC(=O)N([C@@H]2CC(COC)Oc3ccc(C(=O)N[C@H]4CC(C)(C)Oc5ccccc54)cc32)C(=N)N1` (single isomer, unassigned) [Example 16B], 95 nM. Compound `CCC1(CC)CC(=O)N([C@@H]2CCOc3ccc(C(=O)N[C@@H]4c5ccccc5OC(C(F)(F)F)C4O)cc32)C(=N)N1` (single isomer, unassigned) [Example 32A] showed an EC50 of 7.9 nM. Compared with the last compound, the EC50 is about 12-fold lower.

`CCC1(CC)CC(=O)N([C@@H]2CCOc3ccc(C(=O)N[C@@H]4c5ccccc5OC(C(F)(F)F)C4O)cc32)C(=N)N1` (single isomer, unassigned) [Example 32B] registered an EC50 of 290 nM. Regarding `CCC1(CC)CC(=O)N([C@@H]2CC(C)(C)Oc3ccc(C(=O)N[C@@H]4c5ccccc5CC4(C)O)cc32)C(=N)N1` (single isomer, unassigned) [Example 42A], the EC50 worked out at 1 nM. The same measure, in the same setting: for `CCC1(CC)CC(=O)N([C@@H]2CC(C)(C)Oc3ccc(C(=O)N[C@@H]4c5ccccc5CC4(C)O)cc32)C(=N)N1` (single isomer, unassigned) [Example 42B] the value was 3.2 nM; for `CC(C)[C@]1(C)CC(=O)N([C@@H]2CC(C)(C)Oc3ccc(C(=O)N[C@@H]4c5ccccc5CC4(C)O)cc32)C(=N)N1` (single isomer, unassigned) [Example 43A], 8.1 nM; for `CC(C)[C@]1(C)CC(=O)N([C@@H]2CC(C)(C)Oc3ccc(C(=O)N[C@@H]4c5ccccc5CC4(C)O)cc32)C(=N)N1` (single isomer, unassigned) [Example 43B], 21 nM.

In the case of `CCC1(CC)CC(=O)N([C@@H]2CCOc3ccc(C(=O)N[C@@H]4c5ccccc5CC4(C)O)cc32)C(=N)N1` (single isomer, unassigned) [Example 44B], the EC50 stood at 2.8 nM.

For `CC1(C)CC(=O)N([C@@H]2CC(C)(C)Oc3ccc(C(=O)N[C@@H]4c5ccccc5CC4(C)O)cc32)C(=N)N1` (single isomer, unassigned) [Example 54B], the EC50 is 160 nM.

`CCC1(CC)C[C@@H](N2C(=N)NC(C)(C)CC2=O)c2cc(C(=O)N[C@@H]3c4ccccc4CC3(C)O)ccc2O1` (single isomer, unassigned) [Example 55A] gave an EC50 of 24.5 nM.

`CCC1(CC)C[C@@H](N2C(=N)NC(C)(C)CC2=O)c2cc(C(=O)N[C@@H]3c4ccccc4CC3(C)O)ccc2O1` (single isomer, unassigned) [Example 55B]: the EC50 amounted to 83.1 nM. Same read-out and setting: with `CCC1(CC)CC(=O)N([C@@H]2CCOc3ccc(C(=O)N[C@H]4c5ccccc5OCC4(C)O)cc32)C(=N)N1` (single isomer, unassigned) [Example 60B] the figure was 1.7 nM; with `CCC1(CC)CC(=O)N([C@@H]2CCOc3ccc(C(=O)NC4c5ccccc5OC4(C)COC)cc32)C(=N)N1` (single isomer, unassigned) [Example 64A], 12 nM. Turning to `CCC1(CC)CC(=O)N([C@@H]2CCOc3ccc(C(=O)NC4c5ccccc5OC4(C)COC)cc32)C(=N)N1` (single isomer, unassigned) [Example 64B], the EC50 is 0.9 nM. Same read-out and setting: with `CCC1(CC)CC(=O)N([C@@H]2CCOc3ccc(C(=O)NC4c5ccccc5OC4(C)COC)cc32)C(=N)N1` (single isomer, unassigned) [Example 64C] the figure was 64 nM; with `CCC1(CC)CC(=O)N([C@@H]2CCOc3ccc(C(=O)NC4c5ccccc5OC4(C)COC)cc32)C(=N)N1` (single isomer, unassigned) [Example 64D], 42 nM; with `CCOC(=O)C1(C)Oc2ccccc2C1NC(=O)c1ccc2c(c1)[C@H](N1C(=N)NC(CC)(CC)CC1=O)CCO2` (single isomer, unassigned) [Example 65A], 68 nM. Same read-out and setting: with `CCOC(=O)C1(C)Oc2ccccc2C1NC(=O)c1ccc2c(c1)[C@H](N1C(=N)NC(CC)(CC)CC1=O)CCO2` (single isomer, unassigned) [Example 65B] the figure was 2.6 nM; with `CCOC(=O)C1(C)Oc2ccccc2C1NC(=O)c1ccc2c(c1)[C@H](N1C(=N)NC(CC)(CC)CC1=O)CCO2` (single isomer, unassigned) [Example 65C], 26 nM; with `CCC1(CC)CC(=O)N([C@H]2c3cc(C(=O)N[C@@H]4c5ccccc5OC(C)(C)[C@H]4O)ccc3OC2(C)COC)C(=N)N1` (single isomer, unassigned) [Example 73A], 0.3 nM. For `CCC1(CC)CC(=O)N([C@H]2c3cc(C(=O)N[C@@H]4c5ccccc5OC(C)(C)[C@H]4O)ccc3OC2(C)COC)C(=N)N1` (single isomer, unassigned) [Example 73B], the EC50 was found to be 1.7 nM.

The experiment is the same for the next values; noted with them: Plasmodium falciparum, Erythrocyte, 72 h, 0.7% rings, 2% haematocrit, 72 hours at 37° C., LDH readout of parasite growth.
Take `CC(C)[C@]1(C)CC(=O)N([C@@H]2CCOc3ccc(C(=O)NC4c5ccccc5OC(C)(C)C4O)cc32)C(=N)N1` (single isomer, unassigned) [Example 11A]: it took 0.9 nM to reach a half-maximal effect (EC50). On the same count and under the same terms, for `CCC1(CC)CC(=O)N([C@@H]2CC(COC)Oc3ccc(C(=O)N[C@@H]4c5ccccc5C[C@H]4O)cc32)C(=N)N1` (single isomer, unassigned) [Example 17A] the value was 2.7 nM.

`CCC1(CC)CC(=O)N([C@@H]2CCOc3ccc(C(=O)N[C@@H]4c5ccccc5CC4(C)O)cc32)C(=N)N1` (single isomer, unassigned) [Example 44A]: it took 1.5 nM to reach a half-maximal effect (EC50).

With `CC1(C)CC(=O)N([C@@H]2CC(C)(C)Oc3ccc(C(=O)N[C@@H]4c5ccccc5CC4(C)O)cc32)C(=N)N1` (single isomer, unassigned) [Example 54A], the EC50 worked out at 190 nM. In turn, `CCC1(CC)CC(=O)N([C@@H]2CCOc3ccc(C(=O)N[C@H]4c5ccccc5OCC4(C)O)cc32)C(=N)N1` (single isomer, unassigned) [Example 60A] registered an EC50 of 1.3 nM.
